Data reported in the supplement of paper PMC10307832.

How the values were obtained:
Experiment in all cases: relative viability (nuclei count vs DMSO), 5 days (fraction); higher = more cells survive
AZD6482 + Decitabine = compound: Cc1cc([C@@H](C)Nc2ccccc2C(=O)O)c2nc(N3CCOCC3)cc(=O)n2c1 [AZD6482] + Nc1ncn([C@H]2C[C@H](O)[C@@H](CO)O2)c(=O)n1 [Decitabine] (partner 2 µM)
How it was run: (§1)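 Lung cancer cell lines in 1536-well plates got either a single drug or a fixed anchor-drug dose together with five library-drug doses (not always all listed) in √10 steps, by pin tool, on the day after seeding. Nuclei were counted after 5 days, and relative viability is the treated-to-vehicle ratio of nuclei counts. Values are medians of duplicate plates.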

AZD6482 + Tozasertib = compound: Cc1cc([C@@H](C)Nc2ccccc2C(=O)O)c2nc(N3CCOCC3)cc(=O)n2c1 [AZD6482] + Cc1cc(Nc2cc(N3CCN(C)CC3)nc(Sc3ccc(NC(=O)C4CC4)cc3)n2)n[nH]1 [Tozasertib] (partner 0.1 µM)
How it was run: as §1

[1] = compound: COc1cc2nc(N3CCCN(C)CC3)nc(NC3CCN(Cc4ccccc4)CC3)c2cc1OC + O=C(c1cc(Cc2n[nH]c(=O)c3ccccc23)ccc1F)N1CCN(C(=O)C2CC2)CC1 [Olaparib] (partner 8 µM)
How it was run: as §1

[2] = compound: COc1cc2nc(N3CCCN(C)CC3)nc(NC3CCN(Cc4ccccc4)CC3)c2cc1OC + CS(=O)(=O)CCNCc1ccc(-c2ccc3ncnc(Nc4ccc(OCc5cccc(F)c5)c(Cl)c4)c3c2)o1 [Lapatinib] (partner 2 µM)
How it was run: as §1

## HARA
AZD6482 + Decitabine; first compound 0.08 µM
  relative viability: 0.495
AZD6482 + Decitabine; first compound 0.253 µM
  relative viability: 0.511
AZD6482 + Decitabine; first compound 0.8 µM
  relative viability: 0.455
AZD6482 + Decitabine; first compound 2.53 µM
  relative viability: 0.43
AZD6482 + Decitabine; first compound 8 µM
  relative viability: 0.602
AZD6482 + Tozasertib; first compound 0.08 µM
  relative viability: 0.212
AZD6482 + Tozasertib; first compound 0.253 µM
  relative viability: 0.108
AZD6482 + Tozasertib; first compound 0.8 µM
  relative viability: 0.0865
AZD6482 + Tozasertib; first compound 2.53 µM
  relative viability: 0.111
AZD6482 + Tozasertib; first compound 8 µM
  relative viability: 0.0791
[1]; first compound 0.2 µM
  relative viability: 0.79
[1]; first compound 0.6325 µM
  relative viability: 1.1
[1]; first compound 2 µM
  relative viability: 0.832
[1]; first compound 6.325 µM
  relative viability: 1.05
[2]; first compound 0.2 µM
  relative viability: 0.793
[2]; first compound 0.6325 µM
  relative viability: 0.86
[2]; first compound 2 µM
  relative viability: 0.823
[2]; first compound 6.325 µM
  relative viability: 0.804

## HCC-15
AZD6482 + Decitabine; first compound 0.08 µM
  relative viability: 0.648
AZD6482 + Decitabine; first compound 0.253 µM
  relative viability: 0.614
AZD6482 + Decitabine; first compound 0.8 µM
  relative viability: 0.571
AZD6482 + Decitabine; first compound 2.53 µM
  relative viability: 0.488
AZD6482 + Decitabine; first compound 8 µM
  relative viability: 0.556
AZD6482 + Tozasertib; first compound 0.08 µM
  relative viability: 0.344
AZD6482 + Tozasertib; first compound 0.253 µM
  relative viability: 0.332
AZD6482 + Tozasertib; first compound 0.8 µM
  relative viability: 0.377
AZD6482 + Tozasertib; first compound 2.53 µM
  relative viability: 0.37
AZD6482 + Tozasertib; first compound 8 µM
  relative viability: 0.293
[1]; first compound 0.2 µM
  relative viability: 0.738
[1]; first compound 0.6325 µM
  relative viability: 0.674
[1]; first compound 2 µM
  relative viability: 0.754
[1]; first compound 6.325 µM
  relative viability: 0.695
[2]; first compound 0.2 µM
  relative viability: 0.888
[2]; first compound 0.6325 µM
  relative viability: 0.789
[2]; first compound 2 µM
  relative viability: 0.824
[2]; first compound 6.325 µM
  relative viability: 0.765

## HCC-44
AZD6482 + Decitabine; first compound 0.08 µM
  relative viability: 0.895
AZD6482 + Decitabine; first compound 0.253 µM
  relative viability: 0.937
AZD6482 + Decitabine; first compound 0.8 µM
  relative viability: 0.978
AZD6482 + Decitabine; first compound 2.53 µM
  relative viability: 1
AZD6482 + Decitabine; first compound 8 µM
  relative viability: 0.859
AZD6482 + Tozasertib; first compound 0.08 µM
  relative viability: 0.945
AZD6482 + Tozasertib; first compound 0.253 µM
  relative viability: 0.895
AZD6482 + Tozasertib; first compound 0.8 µM
  relative viability: 0.88
AZD6482 + Tozasertib; first compound 2.53 µM
  relative viability: 0.957
AZD6482 + Tozasertib; first compound 8 µM
  relative viability: 0.829
[1]; first compound 0.2 µM
  relative viability: 0.974
[1]; first compound 0.6325 µM
  relative viability: 1.02
[1]; first compound 2 µM
  relative viability: 0.953
[1]; first compound 6.325 µM
  relative viability: 0.977
[2]; first compound 0.2 µM
  relative viability: 1.01
[2]; first compound 0.6325 µM
  relative viability: 0.989
[2]; first compound 2 µM
  relative viability: 1.05
[2]; first compound 6.325 µM
  relative viability: 1.04

## HCC-78
AZD6482 + Decitabine; first compound 0.08 µM
  relative viability: 0.555
AZD6482 + Decitabine; first compound 0.253 µM
  relative viability: 0.462
AZD6482 + Decitabine; first compound 0.8 µM
  relative viability: 0.646
AZD6482 + Decitabine; first compound 2.53 µM
  relative viability: 0.474
AZD6482 + Decitabine; first compound 8 µM
  relative viability: 0.442
AZD6482 + Tozasertib; first compound 0.08 µM
  relative viability: 0.327
AZD6482 + Tozasertib; first compound 0.253 µM
  relative viability: 0.335
AZD6482 + Tozasertib; first compound 0.8 µM
  relative viability: 0.271
AZD6482 + Tozasertib; first compound 2.53 µM
  relative viability: 0.317
AZD6482 + Tozasertib; first compound 8 µM
  relative viability: 0.227
[1]; first compound 0.2 µM
  relative viability: 0.944
[1]; first compound 0.6325 µM
  relative viability: 0.66
[1]; first compound 2 µM
  relative viability: 0.787
[1]; first compound 6.325 µM
  relative viability: 0.831
[2]; first compound 0.2 µM
  relative viability: 0.704
[2]; first compound 0.6325 µM
  relative viability: 1.06
[2]; first compound 2 µM
  relative viability: 1.03
[2]; first compound 6.325 µM
  relative viability: 0.882

## HCC-366
AZD6482 + Decitabine; first compound 0.08 µM
  relative viability: 0.309
AZD6482 + Decitabine; first compound 0.253 µM
  relative viability: 0.302
AZD6482 + Decitabine; first compound 0.8 µM
  relative viability: 0.313
AZD6482 + Decitabine; first compound 2.53 µM
  relative viability: 0.304
AZD6482 + Decitabine; first compound 8 µM
  relative viability: 0.345
AZD6482 + Tozasertib; first compound 0.08 µM
  relative viability: 0.108
AZD6482 + Tozasertib; first compound 0.253 µM
  relative viability: 0.0944
AZD6482 + Tozasertib; first compound 0.8 µM
  relative viability: 0.0731
AZD6482 + Tozasertib; first compound 2.53 µM
  relative viability: 0.12
AZD6482 + Tozasertib; first compound 8 µM
  relative viability: 0.063
[1]; first compound 0.2 µM
  relative viability: 0.451
[1]; first compound 0.6325 µM
  relative viability: 0.304
[1]; first compound 2 µM
  relative viability: 0.376
[1]; first compound 6.325 µM
  relative viability: 0.294
[2]; first compound 0.2 µM
  relative viability: 1.02
[2]; first compound 0.6325 µM
  relative viability: 1.03
[2]; first compound 2 µM
  relative viability: 1.12
[2]; first compound 6.325 µM
  relative viability: 0.956
